Columns and labels:
HLA-A2 = HLA-A2 (Homo sapiens, UniProt P04439, D140Y/D185E/D98H/E176V/E277Q/G131W/G231S/I119V/I121R/I166T/I218V/L300P/L318F/N151K/N90K/P208A/P217A/Q86G/Q94H/R138H/R169H/T345S); test: T2 cell binding assay (HLA class I expression on T2 cells, confocal microscopy); format: cell-based; as to T2 binding: key: +++: high binding capacity; ++: moderate binding capacity; +: low binding capacity
Description: The peptides obtained by […] method and the VH CDR1 and VL CDR2 region peptides were subject to T2 cell binding assay. T2 cells were co-incubated with each peptides in different concentrations (0.3 μg/ml, 3 μg/ml and 30 μg/ml) for 24 hours and then co-incubated with anti-human MHC class I antibodies. The expression profile of HLA class I molecules on the surface of T2 cells was analyzed by confocal microscopy. […] They were synthesized together with the CDR peptides of the anti-idiotype antibody for screening CTL epitope peptides.

HOC1A cells = test: 51Cr release assay, specific CTLs against HOC1A cells; format: cell-based; conditions: for killing of HOC1A cells by peptide-CTLs: CTLs stimulated three periods, 4 hours, effector/target 40:1 to 5:1; for killing effect on HOC1A cells, comparison of antigens: T cells stimulated with single peptide 30 μg/ml, or VH CDR3 15 μg/ml plus VL CDR3 15 μg/ml, or 6B11 40 μg/ml; for killing of HOC1A cells after MHC class I molecule blocking: anti-human MHC class I antibodies 1:20 dilution
Excerpt: The freeze-stored autologous lymphocytes were stimulated by DCs loaded with the peptides and KLH, to obtain peptide-specific CTLs (peptide-CTLs). One period consists of 7 days. On Day 3 of every period, 10 U/ml rh IL-2 was supplemented. Finally, peptide-CTLs were obtained after a 3-period stimulation.
6B11-CTLs stimulated for one period were harvested and used as reacting cells in cell proliferation assay, ELISA cytokine assay and IFN-γ ELISPOT assay. 6B11-CTLs and peptide-CTLs stimulated for 3 periods were harvested for use in ^51Cr release assay as effector cells.
6B11-CTLs and peptide-CTLs stimulated for three periods were used as effector cells. T2 cells, HOC1A cells and HLE cells loaded with corresponding peptides were used as target cells. Standard ^51Cr release assay was carried out for 4 hours. Target cells (1×10^6 cells) were placed into 0.5 ml RPMI 1640 culture medium (containing 5% fetal bovine serum). 100 μCi Na2^51CrO4 was added. The labeling reaction was allowed to continue overnight at 37° C. Then the cells were washed by cold RPMI 1640 culture medium (containing 5% fetal bovine serum) for three times to terminate the labeling reaction. Target cells (5×10^3 cells) were placed into 100 μl culture medium and then mixed with an equal volume of effector cells in a 96-well plate. The ratio of effector/target was set as 40:1, 20:1, 10:1 and 5:1. Spontaneous release wells contained target cells and the culture medium, while the maximal release wells contained target cells and corresponding culture medium containing 1% Triton X-100. The plates were gently spun using a plate centrifuge for 2 minutes and then co-incubated at 37° C. under 5% CO2 for 4 hours. The plates were gently spun again. 100 μl of supernatant per well was transferred to a counting tube and labeled as appropriate. The cpm values were determined by a γ counter. All assays were performed in duplicate. The ratio of cpm values of the spontaneous release well to the maximal release well was <20%. Killing ratio (%)=[(mean cpm value of the experimental wells−mean cpm value of the spontaneous release wells)/(mean cpm value of the maximal release wells−mean cpm value of the spontaneous release wells)]×100
For further analyzing the above-mentioned killing effect, the target cells were blocked by applying anti-human MHC class I antibodies, for evaluating the effect of CTL epitope peptides. Firstly, the optimal concentration of MHC class I antibodies was determined to be 1:20 dilution (FIG. 9). […] The killing effect were not disturbed by MHC class I antibodies, i.e., unrelated to the effect of CD8 T cells. […] Its killing effect was disturbed by MHC class I antibodies, which was mainly mediated by CD8 T cells (FIG. 10). […] The former was unrelated to CD8 T cells whereas the latter was mediated by CD8 T cells.
For investigating the specificity and effectiveness of the killing effect of T-cell epitope peptides, the following experiments were carried out. T cells were stimulated by VH CDR3 peptide (30 μg/ml, final concentration), VL CDR 3 peptide (30 μg/ml), VH CDR3 peptide (15 μg/ml) and VL CDR3 peptide (15 μg/ml) as well as anti-idiotype antibody 6B11 (40 μg/ml), resulting in corresponding specific CTLs, which were used as effector cells. HOC1A cells were used as target cells for performing ^51Cr release assay, in order to compare the effectiveness of each antigen in stimulating immune responses. […] The killing effect of the specific CTLs obtained by stimulating with the combination of VH CDR3 peptide and VL CDR3 peptide was even stronger, which indicated a synergic effect between them. The killing effect of them was also stronger than that of 6B11-CTLs (FIG. 12). […] Their effects were more accurate than that of anti-idiotype antibody 6B11.

[1] = system: CD4 T cells derived from 6B11-CTLs; test: Intracellular cytokines of CD4 T cells by flow cytometry; format: cell-based, human; conditions: 6B11-CTLs co-incubated with peptide-loaded DCs
Description: The anti-idiotype antibody 6B11-CTLs were co-incubated respectively with DCs loading VH CDR3 peptides and DCs without loading. The production of intracellular cytokines in CD4 T cells derived from the anti-idiotype antibody 6B11-CTLs was detected by flow cytometry.

binding capacity in T2 cell binding assay (in words) (HLA-A2; T2 cells co-incubated with peptide 24 hours)	T2 binding (HLA-A2; T2 cells co-incubated with peptide (0.3, 3, 30 μg/ml) 24 hours, HLA class I surface expression)	Sequence	killing of HOC1A cells by peptide-CTLs (HOC1A cells)	killing effect on HOC1A cells, comparison of antigens (HOC1A cells)	killing of HOC1A cells after MHC class I molecule blocking (HOC1A cells)	IFN-γ secretion by CD4 T cells [1]	IL-4 level in CD4 T cells [1]
moderate binding capacity	++	SQSTHFPYT (VL CDR3 region peptide)	could also kill	could kill	significantly inhibited	–	–
–	–	IALITTKIAWYFDV (VH CDR3 region peptide) [VH CDR3 peptide]	could kill	could kill	could still kill	high level	low level
